Earlier results on 44 molecules are cited in PMC6838683, “Discovery of Human Signaling Systems: Pairing Peptides to G Protein-Coupled Receptors” (Cell, 2019).

Read-outs that look alike come from different tables or passages of the source. No end group written: not given here.

This data set relates to human GPCRs. Also noted: method as in Guide to Pharmacology database. To be noted: max reported value, ref Guide to Pharmacology database, cited from earlier work. The source says: Supplement mmc1.xlsx, sheet "HumanGPCRLigands" | column: pKi_value; pKd_value; pEC50_value; pIC50_value
Setting [1] is: receptor taar1_human (TAAR1, Q96RJ0).
The mark [2] stands for this setting: receptor gasr_human (CCKBR, P32239).
[3] abbreviates: receptor CCR2 (ccr2_human, P41597).
[4] abbreviates: receptor CCR3 (ccr3_human, P51677).
Setting [5] is: receptor CCR5 (ccr5_human, P51681).
[6] abbreviates: receptor CCR1 (ccr1_human, P32246).
The mark [7] stands for this setting: receptor CCR7 (ccr7_human, P32248).
The mark [8] stands for this setting: receptor SSTR1 (ssr1_human, P30872).
The mark [9] stands for this setting: receptor SSTR2 (ssr2_human, P30874).
Where [10] appears, read: receptor SSTR3 (ssr3_human, P32745).
[11] abbreviates: receptor SSTR4 (ssr4_human, P31391).
Where [12] appears, read: receptor SSTR5 (ssr5_human, P35346).
[13] abbreviates: receptor CXCR1 (cxcr1_human, P25024).
Where [14] appears, read: receptor CXCR2 (cxcr2_human, P25025).
[15] abbreviates: receptor CXCR3 (cxcr3_human, P49682).
The mark [16] stands for this setting: receptor vipr1_human (VIPR1, P32241).
Where [17] appears, read: receptor gnrhr_human (GNRHR, P30968).
The mark [18] stands for this setting: receptor RXFP4 (rl3r2_human, Q8TDU9).
Setting [19] is: receptor pacr_human (ADCYAP1R1, P41586).
Where [20] appears, read: receptor pth2r_human (PTH2R, P49190).

As for `O=C(O)CCC(=O)O` [succinic acid], under “receptor sucr1_human (SUCNR1), Succinate receptors”, the pEC50_value is listed as 4.7.

As for `NCCc1ccc(O)cc1` [tyramine], under setting [1], the pEC50_value was 6.7.

For the molecule `O=c1ccn([C@@H]2O[C@H](COP(=O)(O)OP(=O)(O)O)[C@@H](O)[C@H]2O)c(=O)[nH]1` [uridine diphosphate], the pEC50_value (receptor p2ry6_human (P2RY6), P2Y receptors) is reported as 6.5.

Take `CC(C)[C@H](NC(=O)[C@@H]1CSSC[C@H](NC(=O)[C@H](CC(=O)O)NC(=O)[C@@H]2CCCN2C(=O)[C@@H](NC(=O)[C@@H](N)CCC(=O)O)[C@@H](C)O)C(=O)N[C@@H](Cc2ccccc2)C(=O)N[C@@H](Cc2c[nH]c3ccccc23)C(=O)N[C@@H](CCCCN)C(=O)N[C@@H](Cc2ccc(O)cc2)C(=O)N1)C(=O)O` [urotensin-II]: the pKi_value (receptor UTS2R (ur2r_human, Q9UKP6)) is listed as 8.6.

On to `NC(=O)CC[C@@H]1NC(=O)[C@H](Cc2ccccc2)NC(=O)[C@H](Cc2ccc(O)cc2)NC(=O)[C@@H](N)CSSC[C@@H](C(=O)N2CCC[C@H]2C(=O)N[C@@H](CCCN=C(N)N)C(=O)NCC(N)=O)NC(=O)[C@H](CC(N)=O)NC1=O` [vasopressin], for which the pKi_value is given as 9.3 (receptor AVPR1A (v1ar_human, P37288)); 9.5 (receptor AVPR1B (v1br_human, P47901)); 9.1 (receptor AVPR2 (v2r_human, P30518)); 9.3 (receptor OXTR (oxyr_human, P30559)).

For the molecule `O=C(O)CCC(=O)C(=O)O` [α-ketoglutaric acid], under “receptor oxgr1_human (OXGR1), Oxoglutarate receptors”, the pEC50_value was 4.5.

Turning to `C[C@@H](O)CC(=O)O` [β-D-hydroxybutyric acid], the pEC50_value (receptor hcar2_human (HCAR2), Hydroxycarboxylic acid receptors) is given as 3.1.

As for `NCCC(=O)O` [β-alanine], for the setting “receptor mrgrd_human (MRGPRD), Class A orphans”, the pEC50_value is listed as 4.8.

As for `NCCc1ccccc1` [β-phenylethylamine], under setting [1], the pEC50_value is given as 7.

For the molecule (-)-adrenaline, the pKi_value by setting is: (receptor ada1a_human (ADRA1A, P35348)) 6.5; (receptor ada1b_human (ADRA1B, P35368)) 6.5; (receptor ada1d_human (ADRA1D, P25100)) 7.2; (receptor ada2a_human (ADRA2A, P08913)) 7.4; (receptor ada2b_human (ADRA2B, P18089)) 5.2; (receptor ada2c_human (ADRA2C, P18825)) 5.8. The pKi_value reads like this: (receptor adrb1_human (ADRB1, P08588)) 6; (receptor adrb2_human (ADRB2, P07550)) 6.2; (receptor adrb3_human (ADRB3, P13945)) 3.9.

With “Big endothelin-1 (CSCSSLMDKECVYFCHLDIIWVNTPEHVVPYGLGSPRS; not fully specified; ends and bridges not checked; UniProt P05305 53-90, looked up)”, the pIC50_value (receptor ednra_human (EDNRA, P25101)) was 8.5.

As for CCK-4, under setting [2], the pIC50_value is 7.5.

Regarding CCK-8, the pIC50_value under setting [2] is recorded as 10.

For CCL2, under setting [3], the pIC50_value is listed as 10.2. Also, the pKi_value was 7.8 under setting [4] and 7.5 under setting [5].

Take CCL3: the pKi_value by setting is: under setting [6], 10.2; under setting [5], 8.9.

Regarding CCL5, the pKi_value by setting is: under setting [6], 8.2; under setting [4], 9.3; under setting [5], 9.7. Moreover, the pEC50_value (receptor gpr75_human (GPR75), Class A orphans) is 9.6.

On to CCL7, for which the pKi_value runs as follows: under setting [6], 8.1; under setting [4], 9.2; under setting [5], 7.5. Also, the pIC50_value under setting [3] is listed as 8.7.

In the case of CCL11, the pIC50_value is 7.7 under setting [3], 9 under setting [4] and 7.7 under setting [5]. In addition, the pKi_value under setting [4] was 10.

Take CCL13: the pIC50_value is listed as 8.7 under setting [3] and 10.3 under setting [4].

In the case of CCL19, under setting [7], the pIC50_value was 9 and the pKd_value is 10. Further, the pIC50_value (receptor CCRL2 (ccrl2_human, O00421)) is listed as 7.4.

On to CCL20, for which, under “receptor CCR6 (ccr6_human, P51684)”, the pIC50_value is 8.5.

For the molecule CCL26, the pIC50_value is recorded as 8.5 under setting [3] and 8.9 under setting [4].

With CST-17, the pKi_value is 9.6 under setting [8]; 9.3 under setting [9]; 9.9 under setting [10]; 9.6 under setting [11]; 10.2 under setting [12].

In the case of CXCL1, the pKi_value was 6.4 under setting [13] and 9.7 under setting [14].

With CXCL2, the pIC50_value under setting [14] was 9.1.

As for CXCL3, the pIC50_value under setting [14] was 9.2.

With CXCL5, the pIC50_value under setting [14] is recorded as 9.

With CXCL6, the pKi_value under setting [13] is listed as 7. For the same molecule, the pKd_value under setting [14] was 7.

Turning to CXCL8, under setting [13], the pKd_value is 8.1. For the same molecule, the pKi_value reads like this: under setting [13], 9.5; under setting [14], 9.5.

Turning to CXCL9, the pKi_value under setting [15] is given as 8.3.

As for CXCL10, the pKi_value under setting [15] is on record as 9.8.

Regarding CXCL11, the pKi_value under setting [15] is 10.5.

For the molecule CXCL13, for the setting “receptor CXCR5 (cxcr5_human, P32302)”, the pKd_value is recorded as 7.3.

Regarding GHRH, under setting [16], the pKi_value is on record as 6.2.

Turning to GnRH I, under setting [17], the pEC50_value is given as 10, the pIC50_value is on record as 8.6, the pKd_value was 8.5 and the pKi_value is 8.4.

With “GnRH II (QHWSHGWYPG; ends and bridges not checked; UniProt O43555 24-33, looked up)”, the pIC50_value under setting [17] is 7.9.

In the case of “INSL5 (Insulin-like peptide INSL5 B … KESVRLCGLEYIRTVIYICASSRW; Insulin-like peptide INSL5 A … QDLQTLCCTDGCSMTDLSALC; UniProt Q9Y5Q6 23-46; Q9Y5Q6 115-135, looked up)”, under setting [18], the pEC50_value is recorded as 8.9, the pIC50_value is on record as 8.9 and the pKi_value is recorded as 8.8.

Turning to PACAP-38 [reference compound], the pEC50_value under setting [19] is reported as 10.3; the pEC50_value under setting [16] is 9.7; the pEC50_value (receptor vipr2_human (VIPR2, P41587)) is 9.3. Besides, the pKi_value is recorded as 9 under setting [19] and 8.2 under setting [16].

In the case of PTHrP-(1-36), the pIC50_value reads like this: (receptor pth1r_human (PTH1R, Q03431)) 6.5; under setting [20], 5.7.

Take “PrRP-20 (TPDINPAWYASRGIRPVGRF; not fully specified; ends and bridges not checked; UniProt P81277 34-53, looked up)”: the pKi_value (receptor PRLHR (prlhr_human, P49683)) is reported as 9.6.

“QRFP43 (QDEGSEATGFLPAAGEKTSGPLGNLAEELNGYSRKKGGFSFRF-NH2; UniProt P83859 91-133, looked up)”: the pEC50_value (receptor QRFPR (qrfpr_human, Q96P65)) is listed as 8.6.

Consider SRIF-14, for which the pKi_value reads like this: under setting [8], 9.5; under setting [9], 10.5; under setting [10], 10; under setting [11], 9.3; under setting [12], 9.9.

Regarding T-kinin (ISRPPGFSPFR), the pKi_value (receptor bkrb1_human (BDKRB1, P46663)) was 5.2.

As for TIP39, under setting [20], the pIC50_value is reported as 9.2.
